From article PMC4526202, “Identification of a botanical inhibitor of intestinal diacylglyceride acyltransferase 1 activity via in vitro screening and a parallel, randomized, blinded, placebo-controlled clinical trial” (Nutrition & Metabolism, 2015)

Assays:
[1] = system: DGAT1 activity / TG synthesis in HEK293H cells; test: Cellular DGAT1 assay: [14C]-glycerol incorporation into TG; type: cell-based, human
Excerpt: Three different cell lines, human colorectal (HT-29), human embryonic kidney (HEK293H) and human hepatic (HEPG2) were screened for the presence of both DGAT1 and DGAT2 protein. The HEK293H cell line contained DGAT1 and little to no DGAT2 protein (Additional file 1: Figure S1), therefore, a cellular DGAT1 assay was established in HEK293H cells to measure the synthesis of TG. HEK293 cell line has previously been reported to contain only DGAT1 and not DGAT2, and has been validated as an in vitro model to determine TG synthesis via DGAT1 [34].
The DGAT1 activity was determined by measuring the incorporation of [^14C]-glycerol (1 μCi/mL, Perkin-Elmer) into [^14C]-TG during a 5 h incubation with 0.3 mM oleic acid/BSA in HEK293H cells. […] Silica gel spots corresponding to lipid species were scraped into scintillation vials and the incorporated radioactivity was quantified using a MicroBeta TriLux (Perkin-Elmer). […]
Dose response curves for the cell-free DGAT1 assay were fitted with a log (inhibitor) vs. response, variable slope (four parameters) equation. Cellular DGAT1 assay data is shown as mean ± standard error of mean (SEM) and was analyzed by two-way ANOVA with Bonferroni's multiple comparison test. […] Area under the curve (AUC) was determined using the trapezoidal method. […]

[2] = target: T1, DGAT1 (human small intestinal microsomal preparation) (Homo sapiens, UniProt O75907); test: Cell-free DGAT1 enzyme assay (LC-MS readout); type: biochemical
T1 construct: using a human small intestinal microsomal preparation (BD Biosciences) as the enzyme source; tissue BD Biosciences; host or cells: human small intestine microsomes
T1 sequence (O75907 1-488): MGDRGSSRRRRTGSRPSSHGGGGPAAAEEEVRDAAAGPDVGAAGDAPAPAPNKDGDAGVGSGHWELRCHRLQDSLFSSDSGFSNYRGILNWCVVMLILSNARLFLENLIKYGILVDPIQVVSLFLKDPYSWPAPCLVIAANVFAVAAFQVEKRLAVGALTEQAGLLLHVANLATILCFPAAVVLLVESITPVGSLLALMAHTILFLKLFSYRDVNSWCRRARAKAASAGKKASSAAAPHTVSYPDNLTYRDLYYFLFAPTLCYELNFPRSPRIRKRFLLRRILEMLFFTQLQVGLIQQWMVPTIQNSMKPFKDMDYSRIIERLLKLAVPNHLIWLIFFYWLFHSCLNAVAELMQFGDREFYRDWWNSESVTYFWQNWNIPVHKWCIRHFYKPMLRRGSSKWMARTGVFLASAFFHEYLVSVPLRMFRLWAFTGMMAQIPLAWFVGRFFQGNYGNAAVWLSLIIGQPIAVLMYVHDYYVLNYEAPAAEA
Protocol: A cell-free DGAT1 assay was established using a human small intestinal microsomal preparation (BD Biosciences) as the enzyme source, and dioleoyl glycerol and palmitoleoyl Coenzyme A (CoA) as substrates (Sigma). Dioleoyl glycerol was dissolved in DMSO and diluted to 600 μM with 175 mM Tris–HCl and 100 mM MgCl2 (Tris/MgCl2) buffer. Palmitoleoyl CoA was dissolved in1.5 % acetone water solution (Fisher Scientific) to 150 μM. Microsomes were diluted to 25 μg/mL with 3.5 mg/mL BSA in Tris MgCl2 buffer. To a 1.5 mL tube, 67 μL of each palmitoleoyl CoA s and dioleoyl glycerol solutions (1:1 ratio) were added and the reaction was initiated by the addition of 67 μL of microsomes. The reaction was incubated in a 37 °C water bath for 60 min. The reaction was stopped by the addition of 1 mL of extraction solvent (isopropanol:dichloromethane (1:1 v/v) with 2.4 % formic acid) containing 1 μg/mL internal standard (glyceryl triolein, Sigma) to each tube and mixed by vortexing. The tubes were centrifuged at 10,000Xg for 3 min. 500 μL of the bottom phase was filtered through a Millex-HV syringe driven filter unit with tube outlet (PVDF @ 0.45 μm, Millipore) and transferred to LC-MS vials (12x32 mm glass screw neck, preslit cap & PTFE/silicone septa, Waters). Phytochemicals (Sigma), botanical extracts and positive control were diluted in DMSO and added to the reaction with the substrates at the desired concentration. The DGAT1 inhibitor A922500 (Tocris) was used as positive control at a concentration of 40 nM.
Refer to Table 3 for the mobile phase program. Solvent A: 0.1 % ammonium acetate in water; Solvent B: 0.1 % acetic acid in acetonitrile; Solvent C: 0.1 % acetic acid in isopropanol; all solvents were from Fisher Scientific. Injection volume: 10 μL. Column: Acquity BEH C18 1.7 μm, 2.1 x 50 mm. Effluent from the column was directed to the electrospray source of the mass spectrometer. Electrospray conditions: positive ion mode; cone voltage: […]; desolvation temperature: 450 °C; source temperature: 140 °C; nebulizer gas flow: 800 L/h; cone gas flow: 10 L/h. The mass spectrometer was operated at 20,000 resolving power and scans from m/z 100–1200 were acquired with a cycle time of 0.25 s. Selected ion chromatograms were plotted for the following: m/z 875 representing the ammoniated molecular ion for triacylglycerol reaction product containing 2 oleic acid and 1 palmitoleic acid moieties (C18:1/C18:1/C16:1); m/z 903 for the ammoniated molecular ion of glyceryl triolein (C18:1/C18:1/C18:1) internal standard. Quantification was determined based on area counts of the product relative to the internal standard.
Dose response curves for the cell-free DGAT1 assay were fitted with a log (inhibitor) vs. response, variable slope (four parameters) equation. Cellular DGAT1 assay data is shown as mean ± standard error of mean (SEM) and was analyzed by two-way ANOVA with Bonferroni's multiple comparison test. The primary outcome variable, serum TG level, is presented as mean ± SEM of baseline (fasting) subtracted change in serum TG after the HFM challenge. Area under the curve (AUC) was determined using the trapezoidal method. Comparisons between groups were made using unpaired t-test with Welch’s correction. A significant effect of investigational product was defined as P < 0.05. All statistical analyses were done using Prism-Graph Pad Software (San Diego, CA).

[3] = single phytochemicals, mean of duplicates

| Compound | IC50 [2, 3] [nM] | further results |
| --- | --- | --- |
| O=C(Nc1ccccc1)Nc1ccc(-c2ccc(C(=O)[C@@H]3CCC[C@H]3C(=O)O)cc2)cc1 [A-922500] | – | oleic acid induced DGAT1 enzyme activity as measured by 14C label TG levels [1]: inhibited; IC50 ([2]; synthetic inhibitor): 40 nM; IC50 ([2]; synthetic inhibitor, listed as A922500): 39.9 nM |
| Oc1cc(O)c2cc(O)c(-c3ccc(O)c(O)c3)[o+]c2c1 [Cyanidin Chloride] | 3060 | – |
| O=C(O[C@@H]1Cc2c(O)cc(O)cc2O[C@@H]1c1cc(O)c(O)c(O)c1)c1cc(O)c(O)c(O)c1 [EGCG, Epigallocatechin Gallate] | 667 | – |
| O=c1oc2c(O)c(O)cc3c(=O)oc4c(O)c(O)cc1c4c23 [Ellagic Acid] | 3450 | – |
| O=C(O)c1cc(O)c(O)c(O)c1 [Gallic Acid] | 2670 | – |
| Punicalagins | 259 | – |
